Measurements taken from publication PMC7261474 (Journal of medicinal chemistry, 2020).
Values joined by “and” are separate entries in the source; they are usually repeats but may differ in a detail not shown here. Identical values can stand only once. Like-named read-outs stand apart in the source and are kept apart here. Where a SMILES comes first, the peptide text is derived from it. [ ]: non-standard residue; d: D form. The star is where a group is joined. hPhe = N[CH](CCc1ccccc1)C(=O)O; 4Pal = N[CH](Cc1ccncc1)C(=O)O; AMC = Cc1cc(=O)oc2cc(N*)ccc12; Cbz = O=C(OCc1ccccc1)*

Experiments:
cruzain [1] = molecular target: T1, cruzain (Trypanosoma cruzi, UniProt P25779); test: Cruzain inhibition/inactivation, time courses with Cbz-Phe-Arg-AMC
T1 sequence (P25779 123-467): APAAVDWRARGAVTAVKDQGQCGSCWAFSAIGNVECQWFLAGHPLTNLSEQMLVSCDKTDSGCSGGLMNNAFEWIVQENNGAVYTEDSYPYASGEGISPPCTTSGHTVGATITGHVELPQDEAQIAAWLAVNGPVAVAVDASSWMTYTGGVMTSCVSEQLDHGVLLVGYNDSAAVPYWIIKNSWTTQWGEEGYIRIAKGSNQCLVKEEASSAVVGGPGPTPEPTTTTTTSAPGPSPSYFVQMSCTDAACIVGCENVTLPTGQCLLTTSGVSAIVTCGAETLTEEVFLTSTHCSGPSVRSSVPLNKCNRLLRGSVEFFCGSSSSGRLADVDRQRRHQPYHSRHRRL

[2] = Covalent adduct formation with glutathione; assay type: physicochemical; details: for reaction with GSH (adduct formation): 90 min incubation, 2:1 or 10:1 molar ratio GSH/inhibitor; for rate of formation of GSH adduct: 2:1 molar ratio GSH/inhibitor; for Keq of GSH adduct (apparent equilibrium): 2:1 molar ratio, equilibrium in 90 min
[3] = tested on: T. cruzi (epimastigote forms, strain Y, ATCC 50832GFP); test: Growth inhibition of T. cruzi epimastigotes in axenic culture; assay type: cell-based, Trypanosoma cruzi; details: 5 days
[4] = tested on: Primary human dermal fibroblast (HDF) cells; test: Human cell toxicity; assay type: cell-based; details: CC50 in human dermal fibroblasts / EC50 in infected cardiomyoblasts
human cathepsin S = human cathepsin S (Homo sapiens, UniProt P25774); test: Human cathepsin S assay with Cbz-Phe-Arg-AMC; assay type: biochemical; details: pH 5.5, 25 °C, 10% DMSO
human cathepsin S, sequence (P25774 115-331): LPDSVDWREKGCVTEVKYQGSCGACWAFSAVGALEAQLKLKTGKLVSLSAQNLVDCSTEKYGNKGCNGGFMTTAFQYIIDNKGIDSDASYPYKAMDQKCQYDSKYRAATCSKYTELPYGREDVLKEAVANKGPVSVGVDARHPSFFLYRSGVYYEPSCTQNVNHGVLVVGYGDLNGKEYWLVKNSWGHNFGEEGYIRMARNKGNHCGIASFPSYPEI

human cathepsin B = human cathepsin B (Homo sapiens, UniProt P07858); test: Human cathepsin B assay with Cbz-Phe-Arg-AMC; assay type: biochemical; details: pH 5.5, 25 °C, 10% DMSO
cruzain [5] = molecular target: T1, cruzain; test: Cruzain-catalysed hydrolysis of fluorogenic dipeptide-AMC substrates; assay type: biochemical; details: for Km / kcat: pH 7.5, 25 °C, 10% DMSO (v/v); for kcat rel: relative to S1 Cbz-Phe-Arg-AMC, S6 and S12 from 2% DMSO data
human cathepsin L = human cathepsin L (Homo sapiens, UniProt P07711); test: Human cathepsin L assay with Cbz-Phe-Arg-AMC; assay type: biochemical; details: pH 5.5, 25 °C, 10% DMSO
human cathepsin L, sequence (P07711 114-333): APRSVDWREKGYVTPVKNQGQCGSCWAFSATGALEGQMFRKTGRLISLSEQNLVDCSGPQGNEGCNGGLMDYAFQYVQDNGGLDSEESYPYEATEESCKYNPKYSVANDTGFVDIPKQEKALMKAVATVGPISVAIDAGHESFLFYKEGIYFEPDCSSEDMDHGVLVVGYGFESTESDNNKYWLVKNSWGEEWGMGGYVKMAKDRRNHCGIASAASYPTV

cruzain [6] = molecular target: T1, cruzain; details: 2% DMSO (v/v); ref [40]; cited from earlier work
[7] = tested on: T. cruzi strain Ca-I/72 in C2C12 mouse cardiomyoblasts; details: ref [55]; cited from earlier work

| Structure (SMILES) | Km (cruzain [5]) | kcat (cruzain [5]) | kcat rel (cruzain [5]) | other results |
| --- | --- | --- | --- | --- |
| O=C(N[C@@H](Cc1ccccc1)C(=O)NC(CCc1ncccn1)Cc1ccccc1)OCc1ccccc1 (stereo in doubt) [Compound 27, Benzyl ((S)-1-Oxo-3-phenyl-1-(((S)-1-phenyl-4-(pyrimidin-2-yl)-butan-2-yl)amino)propan-2-yl)carbamate] |  |  |  | Ki (cruzain [1]): 22000 nM |
| O=C(N[C@@H](Cc1ccccc1)C(=O)N[C@H](/C=C/c1ncccn1)Cc1ccccc1)OCc1ccccc1 [Compound 7, Benzyl ((S)-1-Oxo-3-phenyl-1-(((S,E)-1-phenyl-4-(pyrimidin-2-yl)-but-3-en-2-yl)amino)propan-2-yl)carbamate] |  |  |  | reaction with GSH (adduct formation) ([2]; pH 8.0): no adduct was observed |
| O=C(N[C@@H](Cc1ccccc1)C(=O)N[C@H](/C=C/c1ccccn1)Cc1ccccc1)OCc1ccccc1 [Compound 11, Benzyl ((S)-1-Oxo-3-phenyl-1-(((S,E)-1-phenyl-4-(pyridin-2-yl)but-3-en-2-yl)amino)propan-2-yl)carbamate] |  |  |  | T. cruzi axenic culture EC50 [3]: poorly effective; reaction with GSH (adduct formation) ([2]; pH 8.0): no adduct was observed |
| C[n+]1ccccc1/C=C/[C@H](Cc1ccccc1)NC(=O)[C@H](Cc1ccccc1)NC(=O)OCc1ccccc1.[I-] [Compound 12, 2-((S,E)-3-((S)-2-(((Benzyloxy)carbonyl)amino)-3-phenylpropanamido)-4-phenylbut-1-en-1-yl)-1-methylpyridin-1-ium Iodide] |  |  |  | rate of formation of GSH adduct ([2]; pH 8.0): 37 M⁻¹ s⁻¹; Keq of GSH adduct (apparent equilibrium) ([2]; pH 8.0): 7400 M⁻¹; conversion to GSH adduct ([2]; 20 min, 10:1 molar ratio of GSH to compound): 97%; selectivity index CC50/EC50 [4]: >10 |
| O=C(N[C@@H](Cc1ccccc1)C(=O)N[C@H](/C=C/c1ccccn1)CCc1ccccc1)OCc1ccccc1 [Compound 13, Benzyl ((S)-1-Oxo-3-phenyl-1-(((S,E)-5-phenyl-1-(pyridin-2-yl)pent-1-en-3-yl)amino)propan-2-yl)carbamate] |  |  |  | T. cruzi axenic culture EC50 [3]: poorly effective |
| C[n+]1ccccc1/C=C/[C@H](CCc1ccccc1)NC(=O)[C@H](Cc1ccccc1)NC(=O)OCc1ccccc1 [Compound 15, 2-((S,E)-3-((S)-2-(((Benzyloxy)carbonyl)amino)-3-phenylpropanamido)-5-phenylpent-1-en-1-yl)-1-methylpyridin-1-ium] |  |  |  | Ki (cruzain [1]): 600 ± 200 nM; k3 (eq 6) (cruzain [1]; pH 7.5, global fitting to eq 6): 0.0012 ± 0.0004 s⁻¹; k4 (eq 6) (cruzain [1]; pH 7.5, global fitting to eq 6): 0.00019 ± 0.00005 s⁻¹; rate of formation of GSH adduct ([2]; pH 8.0): 54 M⁻¹ s⁻¹; Keq of GSH adduct (apparent equilibrium) ([2]; pH 8.0): 2400 M⁻¹; selectivity index CC50/EC50 [4]: >20 |
| O=C(N[C@@H](Cc1ccccc1)C(=O)N[C@H](/C=C/c1cc(C(F)(F)F)ccn1)CCc1ccccc1)OCc1ccccc1 [Compound 17, Benzyl ((S)-1-Oxo-3-phenyl-1-(((S,E)-5-phenyl-1-(4-(trifluoromethyl)pyridin-2-yl)pent-1-en-3-yl)amino)propan-2-yl)-carbamate] |  |  |  | reaction with GSH (adduct formation) ([2]; pH 8.0): no adduct was observed |
| O=C(N[C@@H](Cc1ccccc1)C(=O)N[C@H](/C=C/c1ncco1)Cc1ccccc1)OCc1ccccc1 [Compound 24, Benzyl ((S)-1-(((S,E)-4-(Oxazol-2-yl)-1-phenylbut-3-en-2-yl)-amino)-1-oxo-3-phenylpropan-2-yl)carbamate] |  |  |  | T. cruzi axenic culture EC50 [3]: poorly effective |
| O=C(N[C@@H](Cc1ccccc1)C(=O)N[C@H](/C=C/c1nccs1)Cc1ccccc1)OCc1ccccc1 [Compound 25, Benzyl ((S)-1-Oxo-3-phenyl-1-(((S,E)-1-phenyl-4-(thiazol-2-yl)-but-3-en-2-yl)amino)propan-2-yl)carbamate] |  |  |  | reaction with GSH (adduct formation) ([2]; pH 8.0): no adduct was observed |
| C[n+]1ccsc1/C=C/[C@H](Cc1ccccc1)NC(=O)[C@H](Cc1ccccc1)NC(=O)OCc1ccccc1.[I-] [Compound 26, 2-((S,E)-3-((S)-2-(((Benzyloxy)carbonyl)amino)-3-phenylpropanamido)-4-phenylbut-1-en-1-yl)-3-methylthiazol-3-ium Iodide] |  |  |  | rate of formation of GSH adduct ([2]; pH 8.0): 15 M⁻¹ s⁻¹; Keq of GSH adduct (apparent equilibrium) ([2]; pH 8.0): 930 M⁻¹ |
| CN1CCN(C(=O)N[C@@H](Cc2ccccc2)C(=O)N[C@H](/C=C/S(=O)(=O)c2ccccc2)CCc2ccccc2)CC1 [K11777, reference compound] |  |  |  | rate of glutathione adduct formation k ([2]; 0.5 mM compound, 1 mM GSH, pH 8.0): 0.00028 s⁻¹ |
| Cc1cc(=O)oc2cc(NC(=O)[C@H](CCCN=C(N)N)NC(=O)[C@H](Cc3ccccc3)NC(=O)OCc3ccccc3)ccc12 [S1, Cbz-Phe-Arg-AMC, reference compound] (Cbz-Phe-Arg-{AMC}) | 0.89 ± 0.09 µM | 9.6 ± 0.2 s⁻¹ | 1.00 | Michaelis constant, cathepsin S (human cathepsin S): 60 µM; Michaelis constant, cathepsin B (human cathepsin B): 150 µM; Michaelis constant, cathepsin L (human cathepsin L): 2.9 µM |
| Cc1cc(=O)oc2cc(NC(=O)[C@H](CCc3ccccc3)NC(=O)[C@H](Cc3ccccc3)NC(=O)OCc3ccccc3)ccc12 [S2, Cbz-Phe-hPhe-AMC] (Cbz-Phe-[hPhe]-{AMC}) | 0.26 ± 0.06 µM | 2.0 ± 0.2 s⁻¹ | 0.21 |  |
| Cc1cc(=O)oc2cc(NC(=O)C(CCc3ccccc3)NC(=O)C(CC(C)C)NC(=O)OCc3ccccc3)ccc12 (stereo not drawn) [S3, Cbz-Leu-hPhe-AMC] (Cbz-Leu-[hPhe]-{AMC}; configuration not given here) | 0.8 ± 0.2 µM | 3.0 ± 0.2 s⁻¹ |  |  |
| Cc1cc(=O)oc2cc(NC(=O)[C@H](CCCN=C(N)N)NC(=O)[C@H](CC(C)C)NC(=O)OCc3ccccc3)ccc12 [S4, Cbz-Leu-Arg-AMC] | 2.2 ± 0.3 µM | 8.4 ± 0.4 s⁻¹ | 0.88 |  |
| Cc1cc(=O)oc2cc(NC(=O)C(Cc3ccncc3)NC(=O)C(Cc3ccccc3)NC(=O)OCc3ccccc3)ccc12 (stereo not drawn) [S5, Cbz-Phe-(4-Pyr)Ala-AMC] (Cbz-Phe-[4Pal]-{AMC}; configuration not given here) | 3.7 ± 0.5 µM | 7.5 ± 0.5 s⁻¹ | 0.76 |  |
| Cc1cc(=O)oc2cc(NC(=O)[C@H](CCCN=C(N)N)NC(=O)[C@H](CCCN=C(N)N)NC(=O)OCc3ccccc3)ccc12 [S6, Cbz-Arg-Arg-AMC] (Cbz-Arg-Arg-{AMC}) |  |  | 0.75 | Km (cruzain [6]): 3.7 ± 0.4 µM; kcat (cruzain [6]): 7.2 ± 0.1 s⁻¹ |
| Cc1cc(=O)oc2cc(NC(=O)C(CCc3ccccc3)NC(=O)C(Cc3ccccc3)NC(=O)N3CCN(C)CC3)ccc12 (stereo not drawn) [S7, NMePip-Phe-hPhe-AMC] | 3.1 ± 0.3 µM | 4.0 ± 0.1 s⁻¹ | 0.42 |  |
| Cc1cc(=O)oc2cc(NC(=O)[C@H](CCc3ccccc3)NC(=O)[C@H](Cc3ccncc3)NC(=O)OCc3ccccc3)ccc12 [S8, Cbz-(4-Pyr)Ala-hPhe-AMC] (Cbz-[4Pal]-[hPhe]-{AMC}) | 4.6 ± 0.5 µM | 5.3 s⁻¹ and 5.3 ± 0.2 s⁻¹ | 0.55 |  |
| Cc1cc(=O)oc2cc(NC(=O)[C@H](Cc3ccccc3)NC(=O)[C@H](Cc3ccccc3)NC(=O)OCc3ccccc3)ccc12 [S9, Cbz-Phe-Phe-AMC] (Cbz-Phe-Phe-{AMC}) | 0.34 ± 0.06 µM | 0.26 ± 0.01 s⁻¹ | 0.03 |  |
| Cc1cc(=O)oc2cc(NC(=O)C(CCc3ccccc3)NC(=O)C(CCCN=C(N)N)NC(=O)OCc3ccccc3)ccc12 (stereo not drawn) [S10, Cbz-Arg-hPhe-AMC] | 6.8 ± 0.4 µM | 4.9 s⁻¹ and 4.9 ± 0.1 s⁻¹ | 0.51 |  |
| Cc1cc(=O)oc2cc(NC(=O)[C@H](Cc3ccccc3)NC(=O)[C@H](Cc3ccccc3)NC(=O)N3CCN(C)CC3)ccc12 [S11, NMePip-Phe-Phe-AMC] | 14 ± 4 µM | 2.8 ± 0.06 s⁻¹ | 0.29 |  |
| Cc1cc(=O)oc2cc(NC(=O)C(C)NC(=O)C(Cc3ccccc3)NC(=O)OCc3ccccc3)ccc12 (stereo not drawn) [S12, Cbz-Phe-Ala-AMC] |  |  | 0.09 | Km (cruzain [6]): 38 ± 2 µM; kcat (cruzain [6]): 0.89 ± 0.06 s⁻¹ |
| O=C(Cn1ccnc1[N+](=O)[O-])NCc1ccccc1 [benznidazole] |  |  |  | LD50 (antichagasic potency) [7]: 1500 nM |
